Each structure is given as a SMILES string.

The target of the first test is T1, pY641-STAT6 in PBMC (Homo sapiens, UniProt P42226).
T1 construct: Cryopreserved Peripheral Blood Mononuclear Cells (PBMC) are from AllCells; host or cells: cryopreserved PBMC
T1 sequence (P42226 1-847): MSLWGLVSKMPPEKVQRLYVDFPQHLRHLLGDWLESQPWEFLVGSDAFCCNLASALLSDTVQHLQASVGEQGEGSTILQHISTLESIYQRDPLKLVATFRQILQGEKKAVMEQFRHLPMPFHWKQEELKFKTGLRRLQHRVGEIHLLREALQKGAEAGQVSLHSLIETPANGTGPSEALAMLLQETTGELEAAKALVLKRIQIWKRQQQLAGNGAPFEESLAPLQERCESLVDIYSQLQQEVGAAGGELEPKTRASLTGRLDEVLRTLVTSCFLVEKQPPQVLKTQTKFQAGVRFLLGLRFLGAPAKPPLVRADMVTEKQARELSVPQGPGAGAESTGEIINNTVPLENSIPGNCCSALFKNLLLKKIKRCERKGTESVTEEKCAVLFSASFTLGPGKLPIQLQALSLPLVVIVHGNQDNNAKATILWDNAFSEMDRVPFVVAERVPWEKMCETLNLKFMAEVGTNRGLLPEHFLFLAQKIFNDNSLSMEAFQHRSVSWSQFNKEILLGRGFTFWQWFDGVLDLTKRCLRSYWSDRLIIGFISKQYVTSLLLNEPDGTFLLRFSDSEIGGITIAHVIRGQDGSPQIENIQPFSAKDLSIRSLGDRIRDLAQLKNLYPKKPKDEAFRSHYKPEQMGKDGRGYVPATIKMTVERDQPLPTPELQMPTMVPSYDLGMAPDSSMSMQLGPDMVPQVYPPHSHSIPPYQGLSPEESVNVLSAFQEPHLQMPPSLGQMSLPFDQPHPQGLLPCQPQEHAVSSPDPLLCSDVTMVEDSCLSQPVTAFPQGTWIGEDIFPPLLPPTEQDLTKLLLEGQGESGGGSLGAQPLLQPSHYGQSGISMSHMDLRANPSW
The test can be described thus: MSD-pSTAT-PBMC Assay (pSTAT6, IL-4 stimulated). In kind it is cell-based. As to conditions: PBMC, compound 3 hrs, then 1 ng/mL IL-4 for 10 min; Table 115; read-out: STAT6. The source says:
Cryopreserved Peripheral Blood Mononuclear Cells (PBMC) are from AllCells. Recombinant Human IL-4 and IL-6 are from Peprotech. Mouse monoclonal anti-STAT3 antibody, rabbit monoclonal anti-pY705-STAT3 antibody, rabbit monoclonal Anti-pY641-STAT6 antibody, and lysis buffer are from Cell Signaling Technology (CST). Mouse monoclonal anti-STAT6 antibody is from BioLegend. Assay plates, blocker, and anti-rabbit secondary antibody are from Meso Scale Discovery (MSD).
Cyropreserved PBMCs were thawed out and allowed to recover overnight in IMDM+10% heat-inactivated FBS prior to plating 50,000 (STAT3) or 25,000 (STAT6) cells per well in 96-well U-bottom tissue culture plates. Cells were treated with compound for 3 hrs, then stimulated with 10 ng/mL IL-6 (STAT3) or 1 ng/mL IL-4 (STAT6) for 10 min. Cells were then spun down and washed with ice-cold PBS prior to lysing the cell pellet with 1× lysis buffer (CST) with 1× HALT protease and phosphatase inhibitor cocktail (Thermo). Lysates were transferred to and incubated overnight at 4° C. with shaking in QuickPlex 96-well high bind assay plates (MSD) pre-coated overnight with 30 μL per well of 0.6 μg/mL mouse monoclonal anti-STAT3 antibody (STAT3) or 2 μg/mL mouse monoclonal anti-STAT6 antibody (STAT6) in 1× PBS, and pre-blocked for 1 hour with 3% Blocker-A (MSD). Captured protein in the assay plates were then washed and probed with 25 μL per well of […] rabbit monoclonal anti-pY705-STAT3 antibody (STAT3) or 0.18 μg/ml rabbit monoclonal Anti-pY641-STAT6 antibody (STAT6) in 1% Blocker-A for 1 hour at room temperature with shaking, then washed and probed with 25 ul per well of 1 ug/ml Sulfo-TAG Labeled Goat Anti-Rabbit Antibody (MSD) in 1% Blocker-A for 1 hour at room temperature with shaking. Assay plates were then washed and 150 μL of 1× Read Buffer-T (MSD) was added to each well prior to reading on an SQ120 MSD Plate Reader. Assay signal from each sample was subtracted by the signal from unstimulated control wells and normalized to DMSO control wells. IC50 values were calculated using Graph Pad Prism Dose-Response Nonlinear Regression with variable slope. For both pSTAT3 and pSTAT6 A=≤100 nM; B 100-1000 nM; C=>1000-3000 nM; D=>3 μM; and NT=Not Tested.
In the case of `CC(C)(C)C(=O)SCCOP(=O)(OCCSC(=O)C(C)(C)C)C(F)(F)c1ccc2sc(C(=O)N[C@H]3CCC[C@H]4CC[C@@H](C(=O)N5C[C@H](c6ccccc6)[C@@H](C#N)C56CC6)N4C3=O)cc2c1` (single isomer, unassigned) [Compound 1081], the IC50 was below 100 nM.

Regarding `COCCOC(=O)[C@H](C)NP(=O)(OCC(F)(F)F)[C@@H](F)c1ccc2sc(C(=O)N[C@H]3CCCC[C@H]4CC[C@@H](C(=O)N5CC(c6ccccc6)C(C#N)C56CC6)N4C3=O)cc2c1` (stereo in doubt) [Compound 377, 2-methoxyethyl (((R)-(2-(((3S,6S,10aS)-3-((6S,7R)-7-cyano-6-phenyl-4-azaspiro[2.4]heptane-4-carbonyl)-5-oxodecahydropyrrolo [1,2-a]azocin-6-yl)carbamoyl)benzo [b]thiophen-5-yl)fluoromethyl)(2,2,2-trifluoroethoxy)phosphoryl)-L-alaninate], the IC50 is below 100 nM.

The test is the same for the next values; noted with them: STAT6, PBMC, compound 3 hrs, then 1 ng/mL IL-4 for 10 min; Table 115.
Turning to `CCCOC(=O)[C@H](C)NP(=O)(Oc1ccccc1)[C@H](F)c1ccc2sc(C(=O)N[C@H]3CCCC[C@H]4CC[C@@H](C(=O)N5CC(c6cccnc6)CC56CC6)N4C3=O)cc2c1` (stereo in doubt) [Compound 458, propyl (((S)-fluoro(2-(((3S,6S,10aS)-5-oxo-3-((R)-6-(pyridin-3-yl)-4-azaspiro[2.4]heptane-4-carbonyl)decahydropyrrolo[1,2-a]azocin-6-yl)carbamoyl)benzo [b]thiophen-5-yl)methyl)(phenoxy)phosphoryl)-L-alaninate], the IC50 was below 100 nM.

Compound `CCCOC(=O)[C@H](C)NP(=O)(Oc1ccccc1)C(F)c1ccc2sc(C(=O)N[C@H]3CCCC[C@H]4CC[C@@H](C(=O)N5C[C@H](c6cccnc6)CC56CC6)N4C3=O)cc2c1` (stereo in doubt) [Compound 459, propyl (((S)-fluoro(2-(((3S,6S,10aS)-5-oxo-3-((S)-6-(pyridin-3-yl)-4-azaspiro[2.4]heptane-4-carbonyl)decahydropyrrolo[1,2-a]azocin-6-yl)carbamoyl)benzo [b]thiophen-5-yl)methyl)(phenoxy)phosphoryl)-L-alaninate] had an IC50 below 100 nM.

`CCCOC(=O)[C@H](C)N[P@@](=O)(Oc1ccccc1)[C@@H](F)c1ccc2sc(C(=O)N[C@H]3CCCC[C@H]4CC[C@@H](C(=O)N5C[C@@H](c6cccnc6)CC56CC6)N4C3=O)cc2c1` (stereo in doubt) [Compound 460, propyl (((R)-fluoro(2-(((3S,6S,10aS)-5-oxo-3-((S)-6-(pyridin-3-yl)-4-azaspiro[2.4]heptane-4-carbonyl)decahydropyrrolo[1,2-a]azocin-6-yl)carbamoyl)benzo [b]thiophen-5-yl)methyl)(phenoxy)phosphoryl)-L-alaninate] came in with an IC50 below 100 nM.

As to `CCCOC(=O)[C@H](C)NP(=O)(Oc1ccccc1)[C@@H](F)c1ccc2sc(C(=O)N[C@H]3CCCC[C@H]4CC[C@@H](C(=O)N5C(=O)N(c6cncc(C)c6)C(=O)C56CC6)N4C3=O)cc2c1` (stereo partly drawn) [Compound 303, propyl (((R)-fluoro(2-(((3S,6S,10aS)-3-(6-(5-methylpyridin-3-yl)-5,7-dioxo-4,6-diazaspiro [2.4]heptane-4-carbonyl)-5-oxodecahydropyrrolo [1,2-a]azocin-6-yl)carbamoyl)benzo [b]thiophen-5-yl)methyl)(phenoxy)phosphoryl)-L-alaninate], the IC50 was 100 to 1000 nM.

Regarding `CCCOC(=O)[C@H](C)NP(=O)(Cc1ccc2ccc(C(=O)N[C@H]3CCCC[C@H]4CC[C@@H](C(=O)N5CCC(c6cccnc6)C5)N4C3=O)cc2c1)Oc1ccccc1` (stereo partly drawn) [Compound 305, propyl (((7-(((3S,6S,10aS)-5-oxo-3-(3-(pyridin-3-yl)pyrrolidine-1-carbonyl)decahydropyrrolo[1,2-a]azocin-6-yl)carbamoyl)naphthalen-2-yl)methyl)(phenoxy)phosphoryl)-L-alaninate], the IC50 is 100 to 1000 nM.

Compound `CCCOC(=O)[C@H](C)NP(=O)(Oc1ccccc1)C(F)(F)c1ccc2ccc(C(=O)N[C@H]3CCCC[C@H]4CC[C@@H](C(=O)N5CCC(c6cccnc6)C5)N4C3=O)cc2c1` (stereo partly drawn) [Compound 312, propyl ((difluoro(7-(((3S,6S,10aS)-5-oxo-3-(3-(pyridin-3-yl)pyrrolidine-1-carbonyl)decahydropyrrolo[1,2-a]azocin-6-yl)carbamoyl)naphthalen-2-yl)methyl)(phenoxy)phosphoryl)-L-alaninate] returned an IC50 above 3000 nM.

In turn, `CCCOC(=O)[C@H](C)NP(=O)(Oc1ccccc1)C(C)(F)c1ccc2sc(C(=O)N[C@H]3CCCC[C@H]4CC[C@@H](C(=O)N5CCC(c6cccnc6)C5)N4C3=O)cc2c1` (stereo partly drawn) [Compound 314, propyl ((1-fluoro-1-(2-(((3S,6S,10aS)-5-oxo-3-(3-(pyridin-3-yl)pyrrolidine-1-carbonyl)decahydropyrrolo[1,2-a]azocin-6-yl)carbamoyl)benzo [b]thiophen-5-yl)ethyl)(phenoxy)phosphoryl)-L-alaninate] showed an IC50 above 3000 nM.

Turning to `CCCOC(=O)[C@H](C)NP(=O)(Oc1ccccc1)[C@@H](F)c1ccc2sc(C(=O)N[C@H]3CCCC[C@H]4CC[C@@H](C(=O)N5C(=O)N(c6ccc(C(F)(F)F)nc6)C(=O)C56CC6)N4C3=O)cc2c1` (stereo partly drawn) [Compound 327, propyl (((R)-(2-(((3S,6S,10aS)-3-(5,7-dioxo-6-(6-(trifluoromethyl)pyridin-3-yl)-4,6-diazaspiro[2.4]heptane-4-carbonyl)-5-oxodecahydropyrrolo [1,2-a]azocin-6-yl)carbamoyl)benzo [b]thiophen-5-yl)fluoromethyl) (phenoxy)phosphoryl)-L-alaninate], the IC50 was above 3000 nM.

`CCCOC(=O)[C@H](C)NP(=O)(Oc1ccccc1)[C@@H](F)c1ccc2sc(C(=O)N[C@H]3CCCC[C@H]4CC[C@@H](C(=O)N5C(=O)N(c6ccc(C)nc6)C(=O)C56CC6)N4C3=O)cc2c1` (stereo partly drawn) [Compound 328, propyl (((R)-fluoro(2-(((3S,6S,10aS)-3-(6-(6-methylpyridin-3-yl)-5,7-dioxo-4,6-diazaspiro[2.4]heptane-4-carbonyl)-5-oxodecahydropyrrolo [1,2-a]azocin-6-yl)carbamoyl)benzo [b]thiophen-5-yl)methyl)(phenoxy)phosphoryl)-L-alaninate] came in with an IC50 of 100 to 1000 nM.

`CCCOC(=O)[C@H](C)NP(=O)(Oc1ccccc1)[C@@H](F)c1ccc2sc(C(=O)N[C@H]3CCCC[C@H]4CC[C@@H](C(=O)N5C(=O)N(c6ccc(OC)nc6)C(=O)C56CC6)N4C3=O)cc2c1` (stereo partly drawn) [Compound 329, propyl (((R)-fluoro(2-(((3S,6S,10aS)-3-(6-(6-methoxypyridin-3-yl)-5,7-dioxo-4,6-diazaspiro[2.4]heptane-4-carbonyl)-5-oxodecahydropyrrolo [1,2-a]azocin-6-yl)carbamoyl)benzo [b]thiophen-5-yl)methyl)(phenoxy)phosphoryl)-L-alaninate] had an IC50 above 3000 nM.
